Measured values as given in publication PMC9925730, “Controlled sequential in situ self-assembly and disassembly of a fluorogenic cisplatin prodrug for cancer theranostics” (Nature Communications, 2023).

Experiments:
HeLa MCTS = experiment: MCTS imaging and cytotoxicity (penetration, PI staining); type: cell-based, human; settings: 10 μM 1 h, then 24 h
Method: Supplementary Figure 25. Flow cytometric analysis of HeLa cell death. (a) Gating strategy applied for flow cytometric analysis. (b) Representative flow cytometric analysis of HeLa cells by Annexin V-FITC/PI staining. HeLa cells were treated with PBS, CDDP, PtIVNPs or P-CyPt (20 μM) for 2 h, washed with cold PBS for three times, and then continued incubation in refresh blank DMEM medium for another 48 h. The cells were then stained with the Annexin V-FITC/PI kit, and analyzed by flow cytometry. One representative experiment out of two is shown.
Supplementary Figure 26. Evaluation of the penetration and cytotoxicity of PtIVNPs toward HeLa MCTS. MCTS were incubated with PtIVNPs (10 μM) for 1 h, then washed with PBS buffer for three times, followed by incubation for another 24 h.
The MCTs were then co-stained with PI. […]
μm. […] The fluorescence images of the MCTS were captured on a Leica TCS SP8 confocal laser scanning microscope, microscope (TCS SP8 STED 3X) with 10x/0.4 dry lens (Leica), and captured at RGB on a HyD detector (Leica Dmi8) under PI and Cy5.5 channels. […]
were sacrificed after 4 h. […] The fluorescence images of these organs and tumors were acquired with the IVIS Lumina XR III imaging system using a 660 nm excitation filter and a 750 ± 50 nm emission filter. […]

s.c. HeLa tumors = experiment: PA imaging of s.c. HeLa tumors in vivo; design: species or system mice; settings: i.v., 2 h post-injection
Method: (100 μM, in 200 μL saline). Whole body FL images of mice prior to (pre) and at 1 h, 2 h, 4 h, 8 h post injection of P-CyPt or […] acquired on the IVIS Lumina XR III imaging system, using a 660 nm excitation filter and a 750 ± 50 nm emission filter. Each experiment was conducted in three mice. The FL intensities were quantified by the region of interest (ROI) measurement using Living Image Software (4.5.2, PerkinElmer, MA, U.S.A). […] (500 μM, in 200 μL saline). The PA images of the s.c. HeLa tumors in mice prior to (pre), and at 1, 2, 4 h post injection were captured on the Vevo 2100 LAZR system (FUJIFILM VisualSonics), with excitation at 700 and 750 nm. The PA intensities were quantified by the equipped software.

## CC1(C)C(/C=C/C2=C3Oc4cc(OP(=O)(O)O)c(Cl)cc4C=C3CCC2)=[N+](CCCNC(=O)[C@@H](Cc2ccccc2)NC(=O)[C@@H](Cc2ccccc2)NC(=O)CCC(=O)[O][Pt]([NH2])([NH2])([OH])([Cl])[Cl])c2ccccc21 [P-CyPt]
HeLa MCTS
  penetration / cell-kill depth in MCTS: ~ 200 μm
s.c. HeLa tumors
  tumor PA intensity at 700 nm higher than with Pt^IVNPs: ~3.4 fold
  tumor PA intensity at 750 nm higher than with Pt^IVNPs: ~4.3 fold
